Experimental data reported in patent US6521651B1, “Pharmaceutical composition” (Abbott Laboratories, priority 1996, dated 2003).

Assay: Oral bioavailability studies in dogs
Format: in vivo
Conditions: both sexes, beagle, dog, plasma; unformulated solid in a capsule dosage form, 5 mg/kg oral dose in dogs
Method: These capsules were administered to fasted dogs with 10 ml of water.
These capsules were administered to non-fasted dogs with ten milliliter of water.
These capsules were administered to fed dogs with ten milliliter of water.
Dogs (beagle dogs, mixed sexes, weighing 7-14 kg) were fasted overnight prior to dosing, but were permitted water ad libitum. Each dog received a 100 μg/kg subcutaneous dose of histamine approximately 30 minutes prior to dosing. Each dog received a single solid dosage form corresponding to a 5 mg/kg dose of the drug. The dose was followed by approximately 10 milliliters of water. Blood samples were obtained from each animal prior to dosing and 0.25, 0.5, 1.0, 1.5, 2, 3, 4, 6, 8, 10 and 12 hours after drug administration. […] Concentrations of parent drug were determined by reverse phase HPLC with low wavelength UV detection following liquid-liquid extraction of the plasma samples. The parent drug area under the curve was calculated by the trapezoidal method over the time course of the study. The absolute bioavailability of each test composition was calculated by comparing the area under the curve after oral dosing to that obtained from a single intravenous dose. Each capsule or capsule composition was evaluated in a group containing at least six dogs; the values reported are averages for each group of dogs.

- bioavailability: < 2%
Compound: CC(C)c1nc(CN(C)C(=O)N[C@H](C(=O)N[C@@H](Cc2ccccc2)C[C@H](O)[C@H](Cc2ccccc2)NC(=O)OCc2cncs2)C(C)C)cs1 [compound III, (2S,3S,5S)-5-(N-(N-((N-Methyl-N-((2-isopropyl-4-thiazolyl)methyl)-amino)carbonyl)valinyl)amino)-2-(N-((5-thiazolyl)methoxycarbonyl)amino)-1,6-diphenyl-3-hydroxyhexane]
